From patent EP1053246B1, “BETA-SHEET MIMETICS AND METHODS RELATING TO THE USE THEREOF” (MOLECUMETICS, LTD., priority 1998, dated 1999)
Read-outs that look alike come from different tables or passages of the source. Blank lines part the entries; values can stand above or below the molecule they belong to.

Tests used:
bovine thrombin = biological target: T1, bovine thrombin (Bos taurus, UniProt P00735); experiment: thrombin assay: hydrolysis of the mimetic as proteolytic substrate; type: biochemical
T1 construct: bovine thrombin (from Sigma); purchased Sigma
Description: (§1) Both the thrombin and Factor VII assays of this experiment were carried out at 37°C using a Hitachi UV/Vis spectrophotometer (model U-3000). Structure (11b) was dissolved in deionized water. The concentration was determined from the absorbance at 342 nm. […] Initial velocities were calculated from the initial linear portion of the reaction progress curve. Kinetic parameters were determined by unweighted nonlinear least-squares fitting of the simple Michaelis-Menten equation to the experimental data using GraFit (Version 3.0, Erithacus Software Limited).
For the thrombin assay, experiments were performed in pH 8.4 Tris buffer (Tris, 0.05M; NaCl, 0.15M). 6.4 NIH units of bovine thrombin (from Sigma) were dissolved into 10 ml of the assay buffer to yield 10 nM thrombin solution. […] The first two minutes of the reactions were recorded for initial velocity determination.
(§2) In both the thrombin and Factor VII assay of this experiment, (D)FPR-PNA was run as a control.

[1] = biological target: T2, human Factor VIIa (FVIIa) (Homo sapiens, UniProt P08709); experiment: Factor VII assay: hydrolysis of the mimetic as proteolytic substrate; type: biochemical; settings: relative to (D)FPR-PNA control
T2 construct: human Factor VIIa (FVIIa)
T2 sequence (P13726 33-295 partner, one chain of several): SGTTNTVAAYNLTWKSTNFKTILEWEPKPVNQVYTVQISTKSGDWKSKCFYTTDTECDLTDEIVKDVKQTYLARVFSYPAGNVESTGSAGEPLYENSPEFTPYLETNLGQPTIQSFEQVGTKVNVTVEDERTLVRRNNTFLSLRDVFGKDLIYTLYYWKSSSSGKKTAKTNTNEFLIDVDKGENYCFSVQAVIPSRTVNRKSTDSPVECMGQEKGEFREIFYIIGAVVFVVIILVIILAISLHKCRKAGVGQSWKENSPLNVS
Description: as §1
For the Factor VII assay, pH 8.0 Tris buffer (0.05 M Tris, 5 mM CaCl2, 0.15 M NaCl, 0.1% TWEEN 20, 0.1% BSA) was used. 10 µl of 20 µM human Factor VIIa (FVIIa) and 22 µM of human tissue factor (TF) was brought to assay buffer to make 160 nM FVIIa and TF solutions, respectively. […] The initial 3 minutes reaction progress curves were recorded. […] The kcat/KM was calculated from the slope and found to be 17,500 M^-1s^-1.
as §2

tryptase = tryptase inhibition assay (Ki, Example 5); type: biochemical, human lung
Description: (§3) The reaction progress curves were recorded by reading the plates, typically 60 times with 30 second to 2 minute intervals. Initial rates were determined by unweighted nonlinear least-squares fitting to a first order reaction in GraFit (Erithacus Software Limited, London, England).
Tryptase: 0.1 M tris, 0.2 M NaCl, 0.1 mg/ml heparin, pH=8.0 was utilized as buffer. […] From this point seven more dilutions were made for the assay.

Factor X [2] = experiment: Factor X inhibition assay (Ki), source of enzyme not stated; type: biochemical; settings: ratio of Ki of an enzyme to the Ki of thrombin
thioredoxin = experiment: block of insulin disulfide reduction by thioredoxin (turbidity at 650 nm); type: biochemical; settings: 8 µM thioredoxin, 0-100 µM compound, 60 minutes
APC = biological target: T3, APC (Homo sapiens, UniProt P04070); experiment: activated protein C inhibition assay (Ki, Example 5); type: biochemical, human plasma
T3 construct: from tissue; host or cells: human plasma
T3 sequence (P04070 43-197 limits assumed): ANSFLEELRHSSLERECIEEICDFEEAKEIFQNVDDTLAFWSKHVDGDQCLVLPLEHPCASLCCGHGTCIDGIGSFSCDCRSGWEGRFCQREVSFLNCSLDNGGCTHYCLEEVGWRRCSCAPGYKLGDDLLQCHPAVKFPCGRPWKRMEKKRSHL
T3 sequence (P04070 212-461 limits assumed): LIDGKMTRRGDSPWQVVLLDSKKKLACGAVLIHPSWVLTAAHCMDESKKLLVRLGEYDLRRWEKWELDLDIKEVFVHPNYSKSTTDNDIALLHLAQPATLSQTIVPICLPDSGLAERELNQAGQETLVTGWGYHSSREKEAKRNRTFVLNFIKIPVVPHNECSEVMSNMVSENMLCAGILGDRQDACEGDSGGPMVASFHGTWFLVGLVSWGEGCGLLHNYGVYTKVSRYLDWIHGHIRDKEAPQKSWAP

thrombin = thrombin (Bos taurus, UniProt P00735); experiment: thrombin inhibition assay (Ki, Example 5); type: biochemical, bovine plasma; set-up: Thrombin: N-p-tosyl-Gly-Pro-Arg-pNA (from Sigma) was used at 0.5 mM concentration; from tissue; host or cells: bovine plasma
Description: as §3
Seven sequential dilutions were made from the first point for the assay.

trypsin = biological target: T4, trypsin (Bos taurus, UniProt P00760); experiment: trypsin inhibition assay (Ki, Example 5); type: biochemical, bovine pancreas
T4 construct: from tissue; host or cells: bovine pancreas
T4 sequence (P00760 24-246): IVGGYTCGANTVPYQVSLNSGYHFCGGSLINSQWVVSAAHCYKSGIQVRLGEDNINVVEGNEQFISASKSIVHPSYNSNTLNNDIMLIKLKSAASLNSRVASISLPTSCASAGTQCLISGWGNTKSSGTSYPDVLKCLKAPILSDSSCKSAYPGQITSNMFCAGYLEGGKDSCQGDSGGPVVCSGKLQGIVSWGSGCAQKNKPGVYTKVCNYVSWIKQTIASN
Description: as §3

Plasmin = Plasmin (Bos taurus, UniProt P06868); experiment: plasmin inhibition assay (Ki, Example 5); type: biochemical, bovine plasma; set-up: Plasmin: Buffer (see thrombin assay); from tissue; host or cells: bovine plasma
Sequence of Plasmin (P06868 104-583 limits assumed): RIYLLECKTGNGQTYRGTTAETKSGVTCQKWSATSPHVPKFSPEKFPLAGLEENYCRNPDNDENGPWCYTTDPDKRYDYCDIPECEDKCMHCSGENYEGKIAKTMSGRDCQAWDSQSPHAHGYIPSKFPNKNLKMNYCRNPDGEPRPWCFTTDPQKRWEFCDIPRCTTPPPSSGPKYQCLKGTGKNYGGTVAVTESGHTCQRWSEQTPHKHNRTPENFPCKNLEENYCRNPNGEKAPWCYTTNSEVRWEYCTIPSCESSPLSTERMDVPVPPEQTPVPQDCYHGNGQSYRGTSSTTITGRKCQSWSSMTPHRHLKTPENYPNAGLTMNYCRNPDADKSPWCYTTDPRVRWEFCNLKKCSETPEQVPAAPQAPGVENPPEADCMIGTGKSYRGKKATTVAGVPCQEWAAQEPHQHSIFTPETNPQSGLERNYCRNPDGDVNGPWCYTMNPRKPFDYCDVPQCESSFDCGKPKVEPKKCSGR
Sequence of Plasmin (P06868 584-812 limits assumed): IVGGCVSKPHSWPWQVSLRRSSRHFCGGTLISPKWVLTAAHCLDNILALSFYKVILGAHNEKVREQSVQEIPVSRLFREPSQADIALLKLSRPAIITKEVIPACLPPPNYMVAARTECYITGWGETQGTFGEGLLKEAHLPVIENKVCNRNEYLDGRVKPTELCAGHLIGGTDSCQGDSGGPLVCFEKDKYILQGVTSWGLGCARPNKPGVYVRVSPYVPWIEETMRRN
Description: as §3

factor VII = biological target: T5, factor VII (Homo sapiens, UniProt P08709); experiment: Factor VII inhibition assay (Ki, Example 5); type: biochemical
T5 construct: human Factor VIIa (FVIIa)
T5 sequence (P08709 61-212 limits assumed): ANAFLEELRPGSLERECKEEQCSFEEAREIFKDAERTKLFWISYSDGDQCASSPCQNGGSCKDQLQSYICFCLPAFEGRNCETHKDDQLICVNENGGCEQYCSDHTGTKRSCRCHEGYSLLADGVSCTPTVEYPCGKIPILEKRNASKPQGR
T5 sequence (P08709 213-466 limits assumed): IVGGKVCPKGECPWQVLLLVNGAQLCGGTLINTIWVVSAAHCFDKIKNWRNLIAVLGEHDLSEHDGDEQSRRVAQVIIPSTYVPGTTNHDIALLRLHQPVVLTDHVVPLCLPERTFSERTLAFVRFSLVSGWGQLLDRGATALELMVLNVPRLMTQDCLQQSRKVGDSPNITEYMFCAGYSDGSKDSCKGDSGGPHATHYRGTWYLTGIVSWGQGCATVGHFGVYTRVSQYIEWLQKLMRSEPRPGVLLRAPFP
Description: as §3
From this concentration point seven more sequential dilutions were made for the assay.

[3] = biological target: thrombin-thrombomodulin complex (Bos taurus, UniProt P00735); experiment: thrombin-thrombomodulin complex inhibition assay (Ki); type: biochemical; settings: thrombin preincubated with 4 nM thrombomodulin, read-out: Ki (M) T.T.C.
Factor XI = Factor XI (Homo sapiens, UniProt P03951); experiment: Factor XI inhibition assay (Ki); type: biochemical
Sequence of Factor XI (P03951 388-625 limits assumed): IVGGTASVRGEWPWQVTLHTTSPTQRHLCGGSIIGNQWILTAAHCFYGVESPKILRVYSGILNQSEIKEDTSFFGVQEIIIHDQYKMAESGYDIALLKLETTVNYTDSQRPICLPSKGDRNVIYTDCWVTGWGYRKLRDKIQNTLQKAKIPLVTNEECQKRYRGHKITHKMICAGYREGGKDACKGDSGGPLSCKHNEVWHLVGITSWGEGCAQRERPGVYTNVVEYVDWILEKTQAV
Sequence of Factor XI (P03951 19-387 limits assumed): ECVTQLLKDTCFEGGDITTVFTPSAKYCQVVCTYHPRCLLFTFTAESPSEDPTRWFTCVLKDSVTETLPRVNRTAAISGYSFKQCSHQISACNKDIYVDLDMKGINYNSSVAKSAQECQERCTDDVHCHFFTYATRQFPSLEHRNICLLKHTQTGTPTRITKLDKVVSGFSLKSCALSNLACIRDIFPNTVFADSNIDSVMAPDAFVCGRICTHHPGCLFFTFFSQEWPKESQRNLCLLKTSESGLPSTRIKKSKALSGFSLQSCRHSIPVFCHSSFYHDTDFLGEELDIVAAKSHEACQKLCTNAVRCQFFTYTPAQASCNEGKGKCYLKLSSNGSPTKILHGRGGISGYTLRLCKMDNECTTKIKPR

t-PA = t-PA (Homo sapiens, UniProt P00750); experiment: t-PA inhibition assay (Ki, Example 5); type: biochemical
Sequence of t-PA (P00750 36-562): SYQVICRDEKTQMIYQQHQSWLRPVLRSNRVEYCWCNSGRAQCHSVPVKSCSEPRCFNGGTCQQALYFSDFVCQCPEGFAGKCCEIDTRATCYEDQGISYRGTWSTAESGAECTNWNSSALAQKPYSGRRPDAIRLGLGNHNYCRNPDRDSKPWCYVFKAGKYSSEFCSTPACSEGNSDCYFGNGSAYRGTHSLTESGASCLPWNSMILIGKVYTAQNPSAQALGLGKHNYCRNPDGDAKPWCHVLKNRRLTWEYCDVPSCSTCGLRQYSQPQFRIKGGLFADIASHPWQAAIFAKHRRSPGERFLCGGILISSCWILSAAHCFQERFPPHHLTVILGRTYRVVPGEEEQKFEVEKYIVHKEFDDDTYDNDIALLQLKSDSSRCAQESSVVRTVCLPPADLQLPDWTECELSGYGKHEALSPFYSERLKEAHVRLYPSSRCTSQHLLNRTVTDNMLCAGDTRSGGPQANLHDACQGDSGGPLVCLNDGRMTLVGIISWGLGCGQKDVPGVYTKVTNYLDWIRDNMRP
Description: as §3

factor X [4] = biological target: T6, factor X (Bos taurus, UniProt P00743); experiment: Factor X inhibition assay (Ki, Example 5), bovine plasma enzyme; type: biochemical; settings: footnote e: bovine plasma
T6 construct: bovine factor Xa (from Sigma); from tissue; host or cells: bovine plasma
T6 sequence (P00743 41-180 limits assumed): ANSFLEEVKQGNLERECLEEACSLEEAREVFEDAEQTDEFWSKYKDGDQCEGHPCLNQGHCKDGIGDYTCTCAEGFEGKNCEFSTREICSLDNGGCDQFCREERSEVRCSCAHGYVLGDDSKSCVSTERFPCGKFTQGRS
T6 sequence (P00743 234-492 limits assumed): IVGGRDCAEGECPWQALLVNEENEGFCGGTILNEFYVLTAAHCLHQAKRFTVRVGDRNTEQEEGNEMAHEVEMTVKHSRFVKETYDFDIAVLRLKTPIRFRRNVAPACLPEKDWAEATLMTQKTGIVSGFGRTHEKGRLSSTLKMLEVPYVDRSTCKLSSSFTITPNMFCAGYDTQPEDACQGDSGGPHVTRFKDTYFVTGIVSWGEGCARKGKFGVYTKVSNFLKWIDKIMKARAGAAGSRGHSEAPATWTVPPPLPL
Description: All inhibition assays were performed at room temperature in 96 well microplates using Bio-Rad microplate reader (Model 3550). […] The hydrolysis of chromogenic substrates was monitored at 405 nm. The reaction progress curves were recorded by reading the plates, typically 60 times with 30 second to 2 minute intervals. Initial rates were determined by unweighted nonlinear least-squares fitting to a first order reaction in GraFit (Erithacus Software Limited, London, England).
Factor X: Buffer and substrate were the same as used for thrombin assay. A 1:100 dilution was made -in the pH8.0 tris buffer to serve as the first point. Seven more dilutions from the first were made for the assay.

thermolysin = thermolysin (Bacillus thermoproteolyticus, UniProt P00800); experiment: thermolysin inhibition assay; type: biochemical
Sequence of thermolysin (P00800 233-548, species assumed): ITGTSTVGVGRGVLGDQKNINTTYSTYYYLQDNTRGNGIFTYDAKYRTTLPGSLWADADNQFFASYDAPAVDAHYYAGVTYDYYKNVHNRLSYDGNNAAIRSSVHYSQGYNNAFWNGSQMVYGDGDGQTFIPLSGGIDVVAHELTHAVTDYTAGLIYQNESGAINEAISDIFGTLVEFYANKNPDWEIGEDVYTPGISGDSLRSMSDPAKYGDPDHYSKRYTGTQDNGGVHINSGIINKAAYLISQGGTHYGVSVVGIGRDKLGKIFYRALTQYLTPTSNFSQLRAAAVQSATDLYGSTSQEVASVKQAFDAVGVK

leucine aminopeptidase M = biological target: T7, leucine aminopeptidase M (Sus scrofa, UniProt P15145); experiment: leucine aminopeptidase M inhibition assay; type: biochemical
T7 construct: purchased Sigma
T7 sequence (P15145 whole entry): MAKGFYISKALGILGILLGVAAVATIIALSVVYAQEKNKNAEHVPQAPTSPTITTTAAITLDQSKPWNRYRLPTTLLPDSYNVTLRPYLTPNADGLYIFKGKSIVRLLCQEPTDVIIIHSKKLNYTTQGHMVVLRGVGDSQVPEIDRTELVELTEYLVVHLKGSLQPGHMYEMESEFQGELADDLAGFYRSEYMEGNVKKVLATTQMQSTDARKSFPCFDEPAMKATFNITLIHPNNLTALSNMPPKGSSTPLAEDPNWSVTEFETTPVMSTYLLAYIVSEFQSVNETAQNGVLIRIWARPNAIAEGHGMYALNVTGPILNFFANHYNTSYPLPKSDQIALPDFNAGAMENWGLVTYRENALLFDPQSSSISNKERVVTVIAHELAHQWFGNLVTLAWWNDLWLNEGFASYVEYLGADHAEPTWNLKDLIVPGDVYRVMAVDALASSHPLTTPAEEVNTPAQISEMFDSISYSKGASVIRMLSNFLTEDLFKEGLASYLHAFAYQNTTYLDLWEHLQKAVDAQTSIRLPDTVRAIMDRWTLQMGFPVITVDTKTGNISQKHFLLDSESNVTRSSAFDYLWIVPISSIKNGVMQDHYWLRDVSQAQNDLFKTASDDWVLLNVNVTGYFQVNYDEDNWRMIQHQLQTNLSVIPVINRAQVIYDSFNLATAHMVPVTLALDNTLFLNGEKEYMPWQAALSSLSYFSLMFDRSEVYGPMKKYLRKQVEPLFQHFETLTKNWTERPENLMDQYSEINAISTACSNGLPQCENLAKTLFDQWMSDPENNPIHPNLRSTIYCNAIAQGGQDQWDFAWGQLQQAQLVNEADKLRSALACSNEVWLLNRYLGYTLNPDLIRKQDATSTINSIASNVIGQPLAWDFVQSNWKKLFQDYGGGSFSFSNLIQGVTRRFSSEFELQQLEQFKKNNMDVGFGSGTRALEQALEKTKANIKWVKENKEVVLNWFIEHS

papain = papain (Carica papaya, UniProt P00784); experiment: papain inhibition assay
Sequence of papain (P00784 134-345): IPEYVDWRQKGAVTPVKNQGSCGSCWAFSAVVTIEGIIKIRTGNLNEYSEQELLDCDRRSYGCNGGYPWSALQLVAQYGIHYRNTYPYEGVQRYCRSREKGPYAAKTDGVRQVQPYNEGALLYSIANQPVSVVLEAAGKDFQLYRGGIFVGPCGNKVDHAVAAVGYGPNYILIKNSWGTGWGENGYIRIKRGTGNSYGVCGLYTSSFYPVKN

control plasma = experiment: prothrombin time (PT) in control plasma; type: biochemical
Description: Then 200 µl of prewarmed (at 37°C for ∼10 minutes) thromboplastin with calcium (from Sigma) was rapidly added into the plasma sample. […]

bovine factor Xa = biological target: T8, bovine factor Xa (Bos taurus, UniProt P00743); experiment: Factor X inhibition assay (IC50, Example 4); type: biochemical; settings: Factor X; read-out: IC50
T8 construct: bovine factor Xa (from Sigma); purchased Sigma
T8 sequence (P00743 41-180 limits assumed): as the sequence (P00743 41-180 limits assumed) above
T8 sequence (P00743 234-492 limits assumed): as the sequence (P00743 234-492 limits assumed) above
Description: All inhibition assays of this experiment were performed at room temperature in 96 well microplates using a Bio-Rad microplate reader (Model 3550). […] This solution (2.05 mM) served as the stock solution for all the inhibition assays. The hydrolysis of chromogenic substrates was monitored at 405 nm. The reaction progress curves were recorded by reading the plates typically 90 times with 30 seconds to 2 minute intervals. The initial rate were determined by unweighted nonlinear least-squares fitting to a first order reaction in GraFit.
In the Factor X assay, buffer and substrate are the same as used for thrombin assay. A 1:100 dilution was made into pH 8.4 Tris buffer to serve as the first point. Seven dilutions with a dilution factor of 2 were made. The assay protocol is the same as for thrombin except 25 nM of bovine factor Xa (from Sigma) in pH 8.4 Tris buffer was used instead of thrombin.

[5] = substrate hydrolysis, pH 8.4 Tris buffer, 37°C

Km (bovine thrombin; [5]): 3 µM
kcat (bovine thrombin; [5]): 50 s⁻¹
Activity compared to the control (bovine thrombin; thrombin, relative to (D)FPR-PNA control): 0.76
Activity compared to the control [1]: 1.38
SMILES: N=C(N)NCCC[C@H](NC(=O)[C@@H]1CCN2CC[C@@](N)(Cc3ccccc3)C(=O)N12)C(=O)Nc1ccc([N+](=O)[O-])cc1 [(11b)]

Ki (tryptase; read-out: Ki (M) Tryptase): 9e-09 M
SMILES: N=C(N)NCCCC(NC(=O)C1CCC2CCC(N)(Cc3ccccc3)C(=O)N21)C(=O)c1nc2ccccc2s1 (stereo not drawn) [Structure (29b)]

Selectivity (Factor X [2]): 227
Selectivity (tryptase; Tryptase, ratio of Ki of an enzyme to the Ki of thrombin): 106
Ki (tryptase; tryptase, read-out: Ki): 9e-09 M
SMILES: N=C(N)NCCCC(NC(=O)C1CCC2CCC(N)(Cc3ccccc3)C(=O)N21)C(=O)c1nc2ccccc2s1 (stereo not drawn) [(29b)]

SMILES: CC1=C2[C@H]3OC(=O)[C@@H](C)[C@@H]3CC[C@@]2(C)C=CC1=O [Santonin]
thioredoxin-induced turbidity of insulin (thioredoxin): did not block thioredoxin-induced turbidity of insulin

Ki (APC): 25600 nM
Ki (thrombin): 5.4 nM
Ki (trypsin): 52.4 nM
Ki (Plasmin): 23800 nM
Ki (factor VII): 29600 nM
Ki (tryptase; read-out: Ki (M) Tryptase): 1.65e-06 M
Ki [3]: 6.9e-09 M
Ki (Factor XI): 1240 nM
Ki (t-PA): 17200 nM
SMILES: COC(=O)c1c[nH]c(C(=O)[C@H](CCCNC(=N)N)NC(=O)[C@@H]2CCN3CC[C@@](N)(Cc4ccccc4)C(=O)N23)n1 [Structure (45)]

Ki (trypsin): 1.9 nM
Ki (factor VII): 968 nM
Ki (factor X [4]): 1500 nM
SMILES: N=C(N)NCCC[C@H](NC(=O)[C@@H]1CCN2CC[C@@](N)(Cc3ccccc3)C(=O)N12)C(=O)c1nccs1 [Structure (47)]

SMILES: COC(=O)c1cccc2c1C(=O)N([C@@H](CC(C)C)C(=O)NO)C2=O [Structure (234)]
Ki (thermolysin): 6000 nM
Ki (leucine aminopeptidase M): 11000 nM
IC50 (papain): 8000 nM

Ki (thrombin): 7.25 nM
Ki (trypsin): 37.9 nM
Ki (factor VII): 4260 nM
Ki (Factor XI): 1730 nM
SMILES: N=C(N)NC(=O)NC[C@H](NC(=O)[C@@H]1CCN2CC[C@@](N)(Cc3ccccc3)C(=O)N12)C(=O)c1nc2ccccc2s1 [Structure (51)]

IC50 (bovine factor Xa): 385 ± 17 nM
SMILES: N=C(N)NCCC[C@H](NC(=O)[C@@H]1CCN2CC[C@@](N)(Cc3ccccc3)C(=O)N12)C(=O)CCl [(13b)]
PT (control plasma; Concentration 1 pM): 13 s
PT (control plasma; Concentration 10 pM): 17 s
PT (control plasma; Concentration 50 pM): 18 s
PT (control plasma; Concentration 100 pM): 23 s
PT (control plasma; Concentration 200 pM): 24 s
PT (control plasma; Concentration 500 pM): 27 s
PT (control plasma; Concentration 1 nM): 30 s
PT (control plasma; Concentration 10 nM): 31 s
PT (control plasma; Concentration 30 nM): 31 s
PT (control plasma; Concentration 50 nM): 30 s
PT (control plasma; Concentration 80 nM): 33 s

Ki (trypsin): 0.027 nM
Ki (factor VII): 16.4 nM
Ki (factor X [4]): 345 nM
SMILES: N=C(N)NCCC[C@H](NC(=O)[C@@H]1CCN2CC[C@@](N)(Cc3ccccc3)C(=O)N12)C(=O)C(=O)NCCc1ccccc1 [Structure (35)]

Ki (thrombin): 0.0732 nM
Ki (trypsin): 0.0773 nM
SMILES: N=C(N)NCCC[C@H](NC(=O)[C@@H]1CCN2CC[C@@](N)(Cc3ccccc3)C(=O)N12)C(=O)C(=O)NCc1ccccc1 [Structure (37)]

SMILES: N=C(N)NCCC[C@H](NC(=O)[C@@H]1CCCN1C(=O)[C@H](N)Cc1ccccc1)C(=O)CCl [PPACK, (D)FPR-CH2Cl, reference compound]
PT (control plasma; Concentration 500 pM): 15 s
PT (control plasma; Concentration 1 nM): 18 s
PT (control plasma; Concentration 10 nM): 22 s
PT (control plasma; Concentration 20 nM): 25 s
PT (control plasma; Concentration 40 nM): 28 s
PT (control plasma; Concentration 60 nM): 30 s
PT (control plasma; Concentration 80 nM): 31 s

Ki (thrombin): 0.45 nM
SMILES: COc1ccc(CCNC(=O)C(=O)[C@H](CCCNC(=N)N)NC(=O)[C@@H]2CCN3CC[C@@](N)(Cc4ccccc4)C(=O)N23)cc1 [Structure (41)]

Ki (thrombin): 0.31 nM
SMILES: N=C(N)NCCC[C@H](NC(=O)[C@@H]1CCN2CC[C@@](N)(Cc3ccccc3)C(=O)N12)C(=O)C(=O)NCCc1ccc(Cl)cc1 [Structure (39)]
